Measured values taken from publication PMC3463753 (Molecular pharmaceutics, 2012).

Test system: MDCK-WT, MDCK-CYP3A4 and MDCK-MDR1-CYP3A4 cells
Assay: Mannitol
Format: in vitro ADME, dog
Details: paracellular marker; data not shown

Mannitol transport in MDCK-WT, MDCK-CYP3A4 and MDCK-MDR1-CYP3A4 cells: No significant difference
Compound: OC[C@@H](O)[C@@H](O)[C@H](O)[C@H](O)CO [mannitol]
